Data as given in patent US10577317B2, “Crystal forms and production methods thereof” (Sunovion Pharmaceuticals Inc., priority 2017, dated 2020).
Read-outs that look alike come from different tables or passages of the source.

Assays:
Assay type in all cases: physicochemical
[1] = Solid form stability on storage at 25° C. and 60% relative humidity; conditions: after 4 months at 25° C. and 60% relative humidity (RH)
[2] = Solubility (mg/mL) in water, buffers, simulated fluids and organic solvents (Table 1)
[3] = DVS water sorption isotherm, 25° C. scanned over 0 to 95% relative humidity (hygroscopicity)
Excerpt: In various embodiments, the hygroscopicity of crystal forms of racemic amisulpride, enantiomeric amisulpride, and enantiomeric amisulpride solvates are characterized by dynamic vapor sorption (DVS). DVS is a gravimetric technique that measures how much of a solvent is absorbed by a sample by varying the vapor concentration surrounding the sample (e.g., relative humidity) and measuring the change in mass. In the present application, DVS is used to generate water sorption isotherms, which represent the equilibrium amount of vapor sorbed as a function of steady state relative vapor pressure at a constant temperature.

[4] = DVS, 25° C., 0 to 95% relative humidity

## CCN1CCC[C@H]1CNC(=O)c1cc(S(=O)(=O)CC)c(N)cc1OC [(S)-amisulpride Form A′, S-4-Amino-N-[(1-ethyl-2-pyrrolidinyl)methyl]-5-(ethylsulfonyl)-2-methoxybenzamide]
[1]
  thermodynamic stability of crystal form (conversion to other polymorphs or amorphous form): not substantially converting to other polymorphs or amorphous form
[2]; aqueous buffer, 0.05M Acetate Buffer, solution pH 4.5, read-out: Solubility (mg/mL): 0.05M Acetate Buffer
  solubility: > 100 mg/mL
[2]; pH 1.1, Simulated Gastric Fluid (no enzyme), pH adjusted to 1.1 (Form A), 1.2 (Form A′), read-out: Solubility (mg/mL): Simulated Gastric Fluid (no enzyme)
  solubility: > 100 mg/mL
[2]; pH 6.7, fassgf or other biorelevant, Simulated Intestinal Fluid (no enzyme), pH adjusted to 6.7 (Form A), 6.9 (Form A′), read-out: Solubility (mg/mL): Simulated Intestinal Fluid (no enzyme)
  solubility: > 100 mg/mL
[3]; [4]
  hygroscopicity: substantially non-hygroscopic (less than a 1% maximum mass change in water sorption isotherms, at 25 °C scanned over 0 to 95% relative humidity)
  maximum mass change in water sorption isotherms: 0.35%
[3]; DVS, Tables 6B and 6C only
  average maximum mass change based on the data of Tables 6B and 6C: about 0.16%
[3]; DVS, average over the samples of Tables 6A-6C (Form A′) or 6D-6E (Form A)
  average maximum mass change: about 0.22%
[3]; FIG. 3D, RH 0 %, elapse time 60.72 min, sorption
  Change Mass: 0.00 wt %
[3]; FIG. 3D, RH 1 %, elapse time 32.02 min, desorption
  Change Mass: −0.01 wt %
[3]; FIG. 3D, RH 10 %, elapse time 31.00 min, desorption
  Change Mass: 0.01 wt %
[3]; FIG. 3D, RH 10 %, elapse time 33.25 min, sorption
  Change Mass: 0.03 wt %
[3]; FIG. 3D, RH 20 %, elapse time 31.89 min, sorption
  Change Mass: 0.05 wt %
[3]; FIG. 3D, RH 20 %, elapse time 32.05 min, desorption
  Change Mass: 0.03 wt %
[3]; FIG. 3D, RH 30 %, elapse time 32.20 min, sorption
  Change Mass: 0.07 wt %
[3]; FIG. 3D, RH 30 %, elapse time 62.67 min, desorption
  Change Mass: 0.05 wt %
[3]; FIG. 3D, RH 40 %, elapse time 31.41 min, desorption
  Change Mass: 0.07 wt %
[3]; FIG. 3D, RH 40 %, elapse time 31.53 min, sorption
  Change Mass: 0.09 wt %
[3]; FIG. 3D, RH 50 %, elapse time 31.95 min, sorption
  Change Mass: 0.11 wt %
[3]; FIG. 3D, RH 50 %, elapse time 32.12 min, desorption
  Change Mass: 0.08 wt %
[3]; FIG. 3D, RH 60 %, elapse time 31.87 min, sorption
  Change Mass: 0.13 wt %
[3]; FIG. 3D, RH 60 %, elapse time 32.10 min, desorption
  Change Mass: 0.11 wt %
[3]; FIG. 3D, RH 70 %, elapse time 31.10 min, sorption
  Change Mass: 0.16 wt %
[3]; FIG. 3D, RH 70 %, elapse time 31.50 min, desorption
  Change Mass: 0.14 wt %
[3]; FIG. 3D, RH 75 %, elapse time 31.01 min, desorption
  Change Mass: 0.16 wt %
[3]; FIG. 3D, RH 75 %, elapse time 31.28 min, sorption
  Change Mass: 0.18 wt %
[3]; FIG. 3D, RH 80 %, elapse time 31.43 min, sorption
  Change Mass: 0.19 wt %
[3]; FIG. 3D, RH 80 %, elapse time 32.11 min, desorption
  Change Mass: 0.17 wt %
[3]; FIG. 3D, RH 90 %, elapse time 31.35 min, desorption
  Change Mass: 0.28 wt %
[3]; FIG. 3D, RH 90 %, elapse time 31.97 min, sorption
  Change Mass: 0.25 wt %
[3]; FIG. 3D, RH 95 %, elapse time 32.77 min, sorption
  Change Mass: 0.34 wt %
[3]; FIG. 3D, RH 95 %, elapse time 36.47 min, desorption
  Change Mass: 0.35 wt %
[3]; FIG. 3E, RH 1.33 %, elapse time 60.4 min
  Change Mass: 0.000 wt %
[3]; FIG. 3E, RH 5.06 %, elapse time 923.6 min
  Change Mass: −0.028 wt %
[3]; FIG. 3E, RH 5.09 %, elapse time 590.9 min
  Change Mass: −0.004 wt %
[3]; FIG. 3E, RH 5.15 %, elapse time 243.7 min
  Change Mass: −0.010 wt %
[3]; FIG. 3E, RH 9.91 %, elapse time 260.3 min
  Change Mass: −0.006 wt %
[3]; FIG. 3E, RH 9.94 %, elapse time 598.9 min
  Change Mass: 0.000 wt %
[3]; FIG. 3E, RH 10.06 %, elapse time 582.9 min
  Change Mass: 0.003 wt %
[3]; FIG. 3E, RH 10.08 %, elapse time 915.6 min
  Change Mass: −0.023 wt %
[3]; FIG. 3E, RH 14.90 %, elapse time 606.9 min
  Change Mass: 0.004 wt %
[3]; FIG. 3E, RH 14.99 %, elapse time 270.3 min
  Change Mass: 0.000 wt %
[3]; FIG. 3E, RH 15.08 %, elapse time 574.9 min
  Change Mass: 0.010 wt %
[3]; FIG. 3E, RH 15.12 %, elapse time 907.6 min
  Change Mass: −0.017 wt %
[3]; FIG. 3E, RH 19.74 %, elapse time 278.3 min
  Change Mass: 0.006 wt %
[3]; FIG. 3E, RH 19.88 %, elapse time 614.9 min
  Change Mass: 0.009 wt %
[3]; FIG. 3E, RH 20.10 %, elapse time 566.9 min
  Change Mass: 0.017 wt %
[3]; FIG. 3E, RH 20.12 %, elapse time 899.6 min
  Change Mass: −0.012 wt %
[3]; FIG. 3E, RH 24.83 %, elapse time 623.9 min
  Change Mass: 0.014 wt %
[3]; FIG. 3E, RH 24.90 %, elapse time 891.6 min
  Change Mass: −0.007 wt %
[3]; FIG. 3E, RH 24.92 %, elapse time 287.8 min
  Change Mass: 0.013 wt %
[3]; FIG. 3E, RH 24.95 %, elapse time 558.9 min
  Change Mass: 0.024 wt %
[3]; FIG. 3E, RH 29.82 %, elapse time 296.8 min
  Change Mass: 0.019 wt %
[3]; FIG. 3E, RH 29.84 %, elapse time 632.9 min
  Change Mass: 0.019 wt %
[3]; FIG. 3E, RH 30.09 %, elapse time 551.4 min
  Change Mass: 0.031 wt %
[3]; FIG. 3E, RH 30.10 %, elapse time 884.1 min
  Change Mass: −0.001 wt %
[3]; FIG. 3E, RH 34.80 %, elapse time 305.8 min
  Change Mass: 0.026 wt %
[3]; FIG. 3E, RH 34.87 %, elapse time 641.9 min
  Change Mass: 0.024 wt %
[3]; FIG. 3E, RH 34.94 %, elapse time 875.6 min
  Change Mass: 0.005 wt %
[3]; FIG. 3E, RH 34.95 %, elapse time 543.9 min
  Change Mass: 0.038 wt %
[3]; FIG. 3E, RH 39.84 %, elapse time 314.8 min
  Change Mass: 0.033 wt %
[3]; FIG. 3E, RH 39.90 %, elapse time 865.6 min
  Change Mass: 0.011 wt %
[3]; FIG. 3E, RH 39.92 %, elapse time 533.9 min
  Change Mass: 0.045 wt %
[3]; FIG. 3E, RH 39.94 %, elapse time 650.9 min
  Change Mass: 0.028 wt %
[3]; FIG. 3E, RH 44.92 %, elapse time 659.9 min
  Change Mass: 0.034 wt %
[3]; FIG. 3E, RH 45.02 %, elapse time 325.8 min
  Change Mass: 0.040 wt %
[3]; FIG. 3E, RH 45.04 %, elapse time 523.9 min
  Change Mass: 0.053 wt %
[3]; FIG. 3E, RH 45.07 %, elapse time 856.1 min
  Change Mass: 0.018 wt %
[3]; FIG. 3E, RH 49.78 %, elapse time 334.8 min
  Change Mass: 0.047 wt %
[3]; FIG. 3E, RH 49.88 %, elapse time 668.9 min
  Change Mass: 0.040 wt %
[3]; FIG. 3E, RH 50.07 %, elapse time 845.0 min
  Change Mass: 0.026 wt %
[3]; FIG. 3E, RH 50.10 %, elapse time 512.9 min
  Change Mass: 0.060 wt %
[3]; FIG. 3E, RH 54.90 %, elapse time 345.8 min
  Change Mass: 0.055 wt %
[3]; FIG. 3E, RH 54.96 %, elapse time 679.9 min
  Change Mass: 0.046 wt %
[3]; FIG. 3E, RH 55.12 %, elapse time 501.9 min
  Change Mass: 0.067 wt %
[3]; FIG. 3E, RH 55.14 %, elapse time 834.0 min
  Change Mass: 0.035 wt %
[3]; FIG. 3E, RH 59.94 %, elapse time 356.8 min
  Change Mass: 0.062 wt %
[3]; FIG. 3E, RH 59.95 %, elapse time 688.9 min
  Change Mass: 0.053 wt %
[3]; FIG. 3E, RH 60.08 %, elapse time 490.9 min
  Change Mass: 0.075 wt %
[3]; FIG. 3E, RH 60.19 %, elapse time 823.0 min
  Change Mass: 0.044 wt %
[3]; FIG. 3E, RH 64.92 %, elapse time 699.9 min
  Change Mass: 0.060 wt %
[3]; FIG. 3E, RH 65.00 %, elapse time 365.8 min
  Change Mass: 0.071 wt %
[3]; FIG. 3E, RH 65.13 %, elapse time 814.0 min
  Change Mass: 0.053 wt %
[3]; FIG. 3E, RH 65.14 %, elapse time 479.9 min
  Change Mass: 0.081 wt %
[3]; FIG. 3E, RH 69.90 %, elapse time 710.9 min
  Change Mass: 0.067 wt %
[3]; FIG. 3E, RH 69.95 %, elapse time 376.8 min
  Change Mass: 0.081 wt %
[3]; FIG. 3E, RH 70.05 %, elapse time 468.9 min
  Change Mass: 0.088 wt %
[3]; FIG. 3E, RH 70.16 %, elapse time 803.0 min
  Change Mass: 0.062 wt %
[3]; FIG. 3E, RH 74.60 %, elapse time 385.8 min
  Change Mass: 0.089 wt %
[3]; FIG. 3E, RH 74.67 %, elapse time 719.9 min
  Change Mass: 0.074 wt %
[3]; FIG. 3E, RH 75.19 %, elapse time 457.9 min
  Change Mass: 0.096 wt %
[3]; FIG. 3E, RH 75.43 %, elapse time 792.0 min
  Change Mass: 0.073 wt %
[3]; FIG. 3E, RH 79.52 %, elapse time 728.9 min
  Change Mass: 0.081 wt %
[3]; FIG. 3E, RH 79.61 %, elapse time 394.8 min
  Change Mass: 0.098 wt %
[3]; FIG. 3E, RH 80.43 %, elapse time 783.0 min
  Change Mass: 0.084 wt %
[3]; FIG. 3E, RH 80.44 %, elapse time 448.8 min
  Change Mass: 0.105 wt %
[3]; FIG. 3E, RH 84.52 %, elapse time 403.8 min
  Change Mass: 0.109 wt %
[3]; FIG. 3E, RH 84.80 %, elapse time 737.9 min
  Change Mass: 0.090 wt %
[3]; FIG. 3E, RH 85.39 %, elapse time 774.0 min
  Change Mass: 0.096 wt %
[3]; FIG. 3E, RH 85.43 %, elapse time 439.8 min
  Change Mass: 0.117 wt %
[3]; FIG. 3E, RH 89.49 %, elapse time 412.8 min
  Change Mass: 0.123 wt %
[3]; FIG. 3E, RH 89.52 %, elapse time 746.9 min
  Change Mass: 0.103 wt %
[3]; FIG. 3E, RH 90.18 %, elapse time 430.8 min
  Change Mass: 0.129 wt %
[3]; FIG. 3E, RH 90.24 %, elapse time 765.0 min
  Change Mass: 0.109 wt %
[3]; FIG. 3E, RH 94.51 %, elapse time 421.8 min
  Change Mass: 0.142 wt %
[3]; FIG. 3E, RH 94.81 %, elapse time 756.0 min
  Change Mass: 0.122 wt %
[3]; FIG. 3F, RH 19.77 %, elapse time 317.2 min
  Change Mass: 0.035 wt %
[3]; FIG. 3F, RH 24.90 %, elapse time 326.2 min
  Change Mass: 0.042 wt %
